We go through 9 compounds from patent US12427157B2, “Methods for treatment of diseases involving acidic or hypoxic diseased tissues” (Cybrexa 1, Inc., priority 2018, dated 2025).

The target in the assay is PARP (Homo sapiens, UniProt P09874). The assay is described as follows: Enzymatic Assay 2: HT Universal Chemiluminescent PARP Assay of cleaved compounds.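 Note: PARP reaction with activated DNA run 1 h at room temperature, product detected via streptavidin-HRP and luminescence endpoint reading on a plate reader.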
Sequence of PARP (P09874 whole entry): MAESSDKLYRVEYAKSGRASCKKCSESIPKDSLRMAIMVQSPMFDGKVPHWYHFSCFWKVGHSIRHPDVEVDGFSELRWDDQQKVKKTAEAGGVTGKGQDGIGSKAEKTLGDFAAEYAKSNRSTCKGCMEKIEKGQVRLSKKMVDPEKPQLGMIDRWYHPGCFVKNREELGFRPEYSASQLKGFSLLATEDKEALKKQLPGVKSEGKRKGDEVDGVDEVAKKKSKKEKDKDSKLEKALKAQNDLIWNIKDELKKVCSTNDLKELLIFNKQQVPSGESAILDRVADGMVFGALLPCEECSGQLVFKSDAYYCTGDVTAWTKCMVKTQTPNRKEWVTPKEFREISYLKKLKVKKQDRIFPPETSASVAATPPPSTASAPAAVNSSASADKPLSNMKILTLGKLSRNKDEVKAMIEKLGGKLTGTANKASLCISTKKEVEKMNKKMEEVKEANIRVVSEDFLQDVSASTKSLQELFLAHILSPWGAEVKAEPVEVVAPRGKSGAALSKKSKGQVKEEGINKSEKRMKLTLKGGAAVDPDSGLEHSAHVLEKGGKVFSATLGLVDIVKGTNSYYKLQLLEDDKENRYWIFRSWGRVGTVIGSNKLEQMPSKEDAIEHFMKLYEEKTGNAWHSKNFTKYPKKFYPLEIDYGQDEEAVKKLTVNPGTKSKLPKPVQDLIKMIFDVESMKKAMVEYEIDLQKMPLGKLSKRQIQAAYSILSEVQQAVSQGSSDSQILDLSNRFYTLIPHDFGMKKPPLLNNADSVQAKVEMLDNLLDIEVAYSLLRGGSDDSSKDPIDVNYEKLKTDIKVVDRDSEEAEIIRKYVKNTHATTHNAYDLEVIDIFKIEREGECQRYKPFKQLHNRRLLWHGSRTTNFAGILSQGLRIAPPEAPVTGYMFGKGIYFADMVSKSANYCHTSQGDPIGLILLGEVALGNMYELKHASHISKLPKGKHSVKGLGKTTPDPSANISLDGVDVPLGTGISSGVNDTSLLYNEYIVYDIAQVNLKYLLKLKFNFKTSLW
[1] abbreviates: read-out: IC50 Enzymatic Assay 2, Examples cleaved per Example A (crude cleavage solution), R^8H starting materials as such.

Read-outs that look alike come from different tables or passages of the source. Residues, ends and D or L forms follow the SMILES beside them. *: point of attachment. X17 = C[C@@H](COC(=O)N1CCC[C@@H](c2ccc(-n3cc4cccc(C(N)=O)c4n3)cc2)C1)S*; X21 = NC(=O)c1cccc2cn(-c3ccc([C@@H]4CCCN(C(=O)OCCS*)C4)cc3)nc12; X14 = C[C@@H](COC(=O)N1CCC[C@]1(C)c1nc2c(C(N)=O)cccc2[nH]1)S*; X16 = C[C@H](COC(=O)N1CCC[C@]1(C)c1nc2c(C(N)=O)cccc2[nH]1)S*; X22 = C[C@]1(c2nc3c(C(N)=O)cccc3[nH]2)CCCN1C(=O)OCCS*

`CC[C@H](C)[C@H](NC(=O)[C@@H]1CCCN1C(=O)[C@H](CC(N)=O)NC(=O)[C@H](CCC(N)=O)NC(=O)[C@H](CCC(=O)O)NC(=O)[C@H](C)N)C(=O)N[C@@H](Cc1ccc(O)cc1)C(=O)N[C@@H](Cc1c[nH]c2ccccc12)C(=O)N[C@@H](C)C(=O)N[C@@H](CCCNC(=N)N)C(=O)N[C@@H](Cc1ccc(O)cc1)C(=O)N[C@@H](C)C(=O)N[C@@H](CC(=O)O)C(=O)N[C@@H](Cc1c[nH]c2ccccc12)C(=O)N[C@@H](CC(C)C)C(=O)N[C@@H](Cc1ccccc1)C(=O)N[C@H](C(=O)N[C@H](C(=O)N1CCC[C@H]1C(=O)N[C@@H](CC(C)C)C(=O)N[C@@H](CC(C)C)C(=O)N[C@@H](CC(C)C)C(=O)N[C@@H](CC(C)C)C(=O)N[C@@H](CC(=O)O)C(=O)N[C@@H](CC(C)C)C(=O)N[C@@H](C)C(=O)N[C@@H](CC(C)C)C(=O)N[C@@H](CC(C)C)C(=O)N[C@H](C(=O)N[C@@H](CC(=O)O)C(=O)N[C@@H](C)C(=O)N[C@@H](CC(=O)O)C(=O)N[C@@H](CCC(=O)O)C(=O)N[C@@H](CSS[C@@H](C)COC(=O)N1CCC[C@@H](c2ccc(-n3cc4cccc(C(N)=O)c4n3)cc2)C1)C(=O)NCC(=O)O)C(C)C)[C@@H](C)O)[C@@H](C)O` [Example 48] (H-AEQNPIYWARYADWLFTTPLLLLDLALLVDADEC(X17)G-OH; N-terminus and C-terminus assumed): under setting [1], the IC50 amounted to 2.1 nM. Still for that read-out and setting: for `CC[C@H](C)[C@H](NC(=O)[C@@H]1CCCN1C(=O)[C@H](CC(N)=O)NC(=O)[C@H](CCC(N)=O)NC(=O)[C@H](CCC(=O)O)NC(=O)[C@H](C)N)C(=O)N[C@@H](Cc1ccc(O)cc1)C(=O)N[C@@H](Cc1c[nH]c2ccccc12)C(=O)N[C@@H](C)C(=O)N[C@@H](CCCNC(=N)N)C(=O)N[C@@H](Cc1ccc(O)cc1)C(=O)N[C@@H](C)C(=O)N[C@@H](CC(=O)O)C(=O)N[C@@H](Cc1c[nH]c2ccccc12)C(=O)N[C@@H](CC(C)C)C(=O)N[C@@H](Cc1ccccc1)C(=O)N[C@H](C(=O)N[C@H](C(=O)N1CCC[C@H]1C(=O)N[C@@H](CC(C)C)C(=O)N[C@@H](CC(C)C)C(=O)N[C@@H](CC(C)C)C(=O)N[C@@H](CC(C)C)C(=O)N[C@@H](CC(=O)O)C(=O)N[C@@H](CC(C)C)C(=O)N[C@@H](C)C(=O)N[C@@H](CC(C)C)C(=O)N[C@@H](CC(C)C)C(=O)N[C@H](C(=O)N[C@@H](CC(=O)O)C(=O)N[C@@H](C)C(=O)N[C@@H](CC(=O)O)C(=O)N[C@@H](CCC(=O)O)C(=O)N[C@@H](CSSCCOC(=O)N1CCC[C@@H](c2ccc(-n3cc4cccc(C(N)=O)c4n3)cc2)C1)C(=O)NCC(=O)O)C(C)C)[C@@H](C)O)[C@@H](C)O` [Example 49] (H-AEQNPIYWARYADWLFTTPLLLLDLALLVDADEC(X21)G-OH; N-terminus and C-terminus assumed) the value was 26 nM; for `CC(C)C[C@H](NC(=O)[C@H](Cc1ccc(O)cc1)NC(=O)[C@H](C)NC(=O)[C@H](CCCNC(=N)N)NC(=O)[C@H](Cc1c[nH]c2ccccc12)NC(=O)[C@@H]1CCCN1C(=O)[C@H](CC(N)=O)NC(=O)[C@H](CCC(N)=O)NC(=O)[C@H](CC(=O)O)NC(=O)[C@H](CC(=O)O)NC(=O)[C@H](C)N)C(=O)N[C@@H](CC(=O)O)C(=O)N[C@@H](CC(C)C)C(=O)N[C@@H](CC(C)C)C(=O)N[C@@H](Cc1ccccc1)C(=O)N1CCC[C@H]1C(=O)N[C@H](C(=O)N[C@@H](CC(=O)O)C(=O)N[C@H](C(=O)N[C@@H](CC(C)C)C(=O)N[C@@H](CC(C)C)C(=O)N[C@@H](CC(C)C)C(=O)N[C@@H](CC(=O)O)C(=O)N[C@@H](CC(C)C)C(=O)N[C@@H](CC(C)C)C(=O)N[C@@H](Cc1c[nH]c2ccccc12)C(=O)N[C@@H](CC(=O)O)C(=O)N[C@@H](C)C(=O)N[C@@H](CC(=O)O)C(=O)N[C@@H](CCC(=O)O)C(=O)N[C@@H](CSS[C@H](C)COC(=O)N1CCC[C@]1(C)c1nc2c(C(N)=O)cccc2[nH]1)C(=O)NCC(=O)O)[C@@H](C)O)[C@@H](C)O` [Example 51], 0.9 nM; for `CC(C)C[C@H](NC(=O)[C@H](Cc1ccc(O)cc1)NC(=O)[C@H](C)NC(=O)[C@H](CCCNC(=N)N)NC(=O)[C@H](Cc1c[nH]c2ccccc12)NC(=O)[C@@H]1CCCN1C(=O)[C@H](CC(N)=O)NC(=O)[C@H](CCC(N)=O)NC(=O)[C@H](CC(=O)O)NC(=O)[C@H](CC(=O)O)NC(=O)[C@H](C)N)C(=O)N[C@@H](CC(=O)O)C(=O)N[C@@H](CC(C)C)C(=O)N[C@@H](CC(C)C)C(=O)N[C@@H](Cc1ccccc1)C(=O)N1CCC[C@H]1C(=O)N[C@H](C(=O)N[C@@H](CC(=O)O)C(=O)N[C@H](C(=O)N[C@@H](CC(C)C)C(=O)N[C@@H](CC(C)C)C(=O)N[C@@H](CC(C)C)C(=O)N[C@@H](CC(=O)O)C(=O)N[C@@H](CC(C)C)C(=O)N[C@@H](CC(C)C)C(=O)N[C@@H](Cc1c[nH]c2ccccc12)C(=O)N[C@@H](CC(=O)O)C(=O)N[C@@H](C)C(=O)N[C@@H](CC(=O)O)C(=O)N[C@@H](CCC(=O)O)C(=O)N[C@@H](CSS[C@@H](C)COC(=O)N1CCC[C@]1(C)c1nc2c(C(N)=O)cccc2[nH]1)C(=O)NCC(=O)O)[C@@H](C)O)[C@@H](C)O` [Example 52], 1.1 nM.

Regarding `CC[C@H](C)[C@H](NC(=O)[C@@H]1CCCN1C(=O)[C@H](CC(N)=O)NC(=O)[C@H](CCC(N)=O)NC(=O)[C@H](CCC(=O)O)NC(=O)[C@H](C)N)C(=O)N[C@@H](Cc1ccc(O)cc1)C(=O)N[C@@H](Cc1c[nH]c2ccccc12)C(=O)N[C@@H](C)C(=O)N[C@@H](CCCNC(=N)N)C(=O)N[C@@H](Cc1ccc(O)cc1)C(=O)N[C@@H](C)C(=O)N[C@@H](CC(=O)O)C(=O)N[C@@H](Cc1c[nH]c2ccccc12)C(=O)N[C@@H](CC(C)C)C(=O)N[C@@H](Cc1ccccc1)C(=O)N[C@H](C(=O)N[C@H](C(=O)N1CCC[C@H]1C(=O)N[C@@H](CC(C)C)C(=O)N[C@@H](CC(C)C)C(=O)N[C@@H](CC(C)C)C(=O)N[C@@H](CC(C)C)C(=O)N[C@@H](CC(=O)O)C(=O)N[C@@H](CC(C)C)C(=O)N[C@@H](C)C(=O)N[C@@H](CC(C)C)C(=O)N[C@@H](CC(C)C)C(=O)N[C@H](C(=O)N[C@@H](CC(=O)O)C(=O)N[C@@H](C)C(=O)N[C@@H](CC(=O)O)C(=O)N[C@@H](CCC(=O)O)C(=O)N[C@@H](CSSCCOC(=O)N1CCC[C@]1(C)c1nc2c(C(N)=O)cccc2[nH]1)C(=O)NCC(=O)O)C(C)C)[C@@H](C)O)[C@@H](C)O` [Example 53] (H-AEQNPIYWARYADWLFTTPLLLLDLALLVDADEC(X22)G-OH; N-terminus and C-terminus assumed), the IC50 under setting [1] was 1 nM.

`CC[C@H](C)[C@H](NC(=O)[C@@H]1CCCN1C(=O)[C@H](CC(N)=O)NC(=O)[C@H](CCC(N)=O)NC(=O)[C@H](CCC(=O)O)NC(=O)[C@H](C)N)C(=O)N[C@@H](Cc1ccc(O)cc1)C(=O)N[C@@H](Cc1c[nH]c2ccccc12)C(=O)N[C@@H](C)C(=O)N[C@@H](CCCNC(=N)N)C(=O)N[C@@H](Cc1ccc(O)cc1)C(=O)N[C@@H](C)C(=O)N[C@@H](CC(=O)O)C(=O)N[C@@H](Cc1c[nH]c2ccccc12)C(=O)N[C@@H](CC(C)C)C(=O)N[C@@H](Cc1ccccc1)C(=O)N[C@H](C(=O)N[C@H](C(=O)N1CCC[C@H]1C(=O)N[C@@H](CC(C)C)C(=O)N[C@@H](CC(C)C)C(=O)N[C@@H](CC(C)C)C(=O)N[C@@H](CC(C)C)C(=O)N[C@@H](CC(=O)O)C(=O)N[C@@H](CC(C)C)C(=O)N[C@@H](C)C(=O)N[C@@H](CC(C)C)C(=O)N[C@@H](CC(C)C)C(=O)N[C@H](C(=O)N[C@@H](CC(=O)O)C(=O)N[C@@H](C)C(=O)N[C@@H](CC(=O)O)C(=O)N[C@@H](CCC(=O)O)C(=O)N[C@@H](CSS[C@H](C)COC(=O)N1CCC[C@]1(C)c1nc2c(C(N)=O)cccc2[nH]1)C(=O)NCC(=O)O)C(C)C)[C@@H](C)O)[C@@H](C)O` [Example 54] (H-AEQNPIYWARYADWLFTTPLLLLDLALLVDADEC(X16)G-OH; N-terminus and C-terminus assumed): the IC50 under setting [1] worked out at 0.6 nM. For `CC[C@H](C)[C@H](NC(=O)[C@@H]1CCCN1C(=O)[C@H](CC(N)=O)NC(=O)[C@H](CCC(N)=O)NC(=O)[C@H](CCC(=O)O)NC(=O)[C@H](C)N)C(=O)N[C@@H](Cc1ccc(O)cc1)C(=O)N[C@@H](Cc1c[nH]c2ccccc12)C(=O)N[C@@H](C)C(=O)N[C@@H](CCCNC(=N)N)C(=O)N[C@@H](Cc1ccc(O)cc1)C(=O)N[C@@H](C)C(=O)N[C@@H](CC(=O)O)C(=O)N[C@@H](Cc1c[nH]c2ccccc12)C(=O)N[C@@H](CC(C)C)C(=O)N[C@@H](Cc1ccccc1)C(=O)N[C@H](C(=O)N[C@H](C(=O)N1CCC[C@H]1C(=O)N[C@@H](CC(C)C)C(=O)N[C@@H](CC(C)C)C(=O)N[C@@H](CC(C)C)C(=O)N[C@@H](CC(C)C)C(=O)N[C@@H](CC(=O)O)C(=O)N[C@@H](CC(C)C)C(=O)N[C@@H](C)C(=O)N[C@@H](CC(C)C)C(=O)N[C@@H](CC(C)C)C(=O)N[C@H](C(=O)N[C@@H](CC(=O)O)C(=O)N[C@@H](C)C(=O)N[C@@H](CC(=O)O)C(=O)N[C@@H](CCC(=O)O)C(=O)N[C@@H](CSS[C@@H](C)COC(=O)N1CCC[C@]1(C)c1nc2c(C(N)=O)cccc2[nH]1)C(=O)NCC(=O)O)C(C)C)[C@@H](C)O)[C@@H](C)O` [Example 55] (H-AEQNPIYWARYADWLFTTPLLLLDLALLVDADEC(X14)G-OH; N-terminus and C-terminus assumed), the IC50 under setting [1] was found to be 0.7 nM. Still for that read-out and setting: for `CC(C)C[C@H](NC(=O)[C@H](Cc1ccc(O)cc1)NC(=O)[C@H](C)NC(=O)[C@H](CCCNC(=N)N)NC(=O)[C@H](Cc1c[nH]c2ccccc12)NC(=O)[C@@H]1CCCN1C(=O)[C@H](CC(N)=O)NC(=O)[C@H](CCC(N)=O)NC(=O)[C@H](CC(=O)O)NC(=O)[C@H](CC(=O)O)NC(=O)[C@H](C)N)C(=O)N[C@@H](CC(=O)O)C(=O)N[C@@H](CC(C)C)C(=O)N[C@@H](CC(C)C)C(=O)N[C@@H](Cc1ccccc1)C(=O)N1CCC[C@H]1C(=O)N[C@H](C(=O)N[C@@H](CC(=O)O)C(=O)N[C@H](C(=O)N[C@@H](CC(C)C)C(=O)N[C@@H](CC(C)C)C(=O)N[C@@H](CC(C)C)C(=O)N[C@@H](CC(=O)O)C(=O)N[C@@H](CC(C)C)C(=O)N[C@@H](CC(C)C)C(=O)N[C@@H](Cc1c[nH]c2ccccc12)C(=O)N[C@@H](CC(=O)O)C(=O)N[C@@H](C)C(=O)N[C@@H](CC(=O)O)C(=O)N[C@@H](CCC(=O)O)C(=O)N[C@@H](CSSc1ccc(COC(=O)N2CCC[C@]2(C)c2nc3c(C(N)=O)cccc3[nH]2)cc1)C(=O)NCC(=O)O)[C@@H](C)O)[C@@H](C)O` [Example 56] the value was 0.8 nM.

`C[C@]12CCCN1C1=NNC(=O)c3cc(F)cc4[nH]c(c1c34)C2` [R^8H-17, reference compound] came in with an IC50 of 1 nM.

The IC50 is the point on the concentration scale where inhibition reaches its midpoint.
